According to patent US10532040B2, “Methods of treating cancer with herbacetin” (REGENTS OF THE UNIVERSITY OF MINNESOTA, priority 2011, dated 2020):

Target: T1, ODC (Homo sapiens, UniProt P11926)
T1 sequence (P11926 1-461): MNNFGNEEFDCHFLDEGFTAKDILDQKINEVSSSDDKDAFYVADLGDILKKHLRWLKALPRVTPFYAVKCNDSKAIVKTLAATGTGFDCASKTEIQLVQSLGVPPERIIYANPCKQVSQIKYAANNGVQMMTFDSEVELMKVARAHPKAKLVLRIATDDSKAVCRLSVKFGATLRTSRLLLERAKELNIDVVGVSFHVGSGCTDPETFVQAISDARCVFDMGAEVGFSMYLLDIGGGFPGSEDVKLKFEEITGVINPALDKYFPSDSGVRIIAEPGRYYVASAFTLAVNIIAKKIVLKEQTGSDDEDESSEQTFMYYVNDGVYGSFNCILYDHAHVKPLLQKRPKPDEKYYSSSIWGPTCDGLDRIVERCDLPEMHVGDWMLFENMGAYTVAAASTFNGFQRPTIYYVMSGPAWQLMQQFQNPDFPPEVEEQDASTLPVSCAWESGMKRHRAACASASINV
Test: ODC enzyme assay with recombinant ODC protein
Format: biochemical
Conditions: in vitro
Experimental: FIGS. 5A-5E. The effect of herbacetin on ODC activity was assessed in (a) DLD-1 and (b) HCT116 colon cancer cells. Cell lysates were incubated for 15 min with reaction buffer and different doses of herbacetin or DFMO and then incubated at 37° C. for 1 h. Herbacetin (c) and kaempferol (d) were modeled as allosteric inhibitors with the ODC crystal structure. (e) The effect of herbacetin or kaempferol on ODC activity was assessed using a human ODC recombinant protein. Each reaction was incubated at 37° C. for 1 h and ODC activity was measured as the release of CO2 from L-[1-C^14] ornithine. Data are represented as means±S.D. of triplicate values. The asterisk (*) indicates a significant difference (p<0.05) between herbacetin-treated samples compared to untreated or kaempferol-treated samples.
ODC activity was measured as the release of CO2 from L-[1-C^14] ornithine as previously described ([…]).

ODC activity (release of CO2 from L-[1-C^14] ornithine): little effect
SMILES: O=c1c(O)c(-c2ccc(O)cc2)oc2cc(O)cc(O)c12 [kaempferol, reference compound]
